In publication PMC10447463, “Data-mining unveils structure–property–activity correlation of viral infectivity enhancing self-assembling peptides” (Nature Communications, 2023):
Where two headings read alike, the source gives them in different places.

Tests used:
[1] = Turbidity, derived count rate of scattered light; format: physicochemical; details: for Count Rate: derived count rate of scattered light (turbidity); for Log10 Count Rate: turbidity, derived count rate of scattered light, data of Figure 2D
[2] = β-sheet content by ATR-FT-IR; format: physicochemical; details: for b -sheet / %: Fig. S7 panel A, β-sheet content by ATR-FT-IR
Outline: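 ATR FT-IR, diamond crystal, 64 scans, 2 cm^-1, on freeze-dried 1 mg/mL PNF; β-sheet per prior calculation. Fluorescamine CR: 3 kDa filter, DMSO redissolution, 20 min RT, ex 365/em 470 nm; values as n-fold enhancement over DMSO (set to 1).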

[3] = Turbidity, derived count rate of scattered light; format: physicochemical; details: for Count Rate / kcps: derived count rate of scattered light at 633 nm, 173°, from zeta-potential measurement, 0.1 mg/mL in 1 mM KCl after 1 d at 1 mg/mL in PBS, turbidity / microscopic aggregation, mean of triplicate
Outline: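 Samples: 1 mg/mL in PBS pH 7.4 (from DMSO), 1 d at RT, then diluted in 1 mM KCl immediately before measurement. Triplicates, two independent runs averaged.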

[4] = Zeta-potential measurement; format: physicochemical
Outline: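 Peptides diluted from DMSO stock into PBS pH 7.4 to 1 mg/mL and aged 1 d at RT, then diluted into 1 mM aqueous KCl. Zeta potential derived from electrophoretic mobility via Smoluchowski; triplicates, averaged over two independent experiments.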

[5] = system: HIV-1 infection of TZM-bl cells; test: HIV-1 infectivity enhancement assay, β-galactosidase luminescence; format: cell-based; details: for Rel-EFC / Log10 Infection Rel EFC: 1.3 µM peptide; for Rel-EFC: infection relative to EF-C (QCKIKQIINMWQ = 1); for Log10 Infection Rel EFC: log10 of infection relative to EF-C; for Log Infectivity: Log10 infection relative to EF-C, asymmetric std dev errors; for Log Infectivity / Abs. Inf.: TZM-bl cells; for Log10 Infection Rel EF-C: HIV-1 infection of TZM-bl cells; for Log10 of Rel to EFC (Feb2021): Log10 of infection relative to EF-C; for Abs. Inf.: absolute HIV-1 infection signal, β-galactosidase luminescence
[6] = Log10 of derived count rate of scattered light (turbidity)
[7] = log10 of derived count rate of scattered light (turbidity)
[8] = turbidity, Log10 of derived count rate of scattered light, Figure 3A source data
[9] = zeta-potential of peptide, source data of Figure 2C
[10] = zeta-potential of the peptide assemblies, mean, Figure 3A source data
[11] = Fig. S7 panel A (plotted against β-sheet content)
[12] = Log10 of infection rate relative to EF-C, Figure 3A source data
[13] = infection rate relative to EF-C, log10, data of Figure 2D
[14] = infection rate relative to EF-C, log10, source data of Figure 2C
[15] = zeta potential of peptide assemblies
[16] = Fig. S7 panel B (plotted against CR), rounded to two decimals
[17] = second listing, peptides with TEM 2cat 0

Substance | Count Rate [1] | Log10 Count Rate [1] | b -sheet / % [2] [%] | Log10 Count Rate [3, 6] | Count Rate / kcps [3] [kcps] | Log10 Count Rate [3, 7] | Log10 Count Rate [3, 8] | Zeta-Pot. [4] | Zeta-Potential / mV [4, 9] [mV] | Zeta-Potential / mV [4, 10] [mV] | Rel-EFC [5] | Log10 Infection Rel EFC [5] | Log Infectivity [5, 11] | Log10 Infection Rel EF-C [5, 12] | Log10 Infection Rel EF-C [5, 13] | Log10 Infection Rel EF-C [5, 14] | Log10 of Rel to EFC (Feb2021) ([5]; all peptides of FigS16) | Abs. Inf. [5] | Zeta-Pot. [4, 15] | Log Infectivity [5, 16] | further results
KFKFQFW | 121.9 | 2.086 | 35.45 | 2.086 | 122 | 2.086 | 2.086 | 6.49 | 8.995 | 6.49 | 0,16 | -0,79 | -0.7899 | -0.79 | -0.7899 | -0.7899 | -0.79 | 4953 | – | – | –
KFKQFFINMWQ | 8996 | 3.954 | 38.37 | 3.954 | 8996 | 3.954 | 3.954 | 7.99 | 10.28 | 7.99 | 0,92 | -0,04 | -0.03603 | -0.04 | -0.03603 | -0.03603 | -0.04 | 14953.33333 | – | – | –
KIEIQINM | 274.8 | 2.439 | 42.99 | 2.439 | 275 | 2.439 | 2.439 | – | -6.992 | -0.35 | 0,03 | -1,46 | -1.458 | -1.46 | -1.458 | -1.458 | – | – | -0.35 | – | –
KIKIKIKI | 155.1 | 2.191 | 40.46 | 2.191 | 155 | 2.191 | 2.191 | – | 5.997 | 5.46 | 0,03 | -1,49 | -1.487 | -1.49 | -1.487 | -1.487 | – | – | 5.46 | – | –
KIKIKIKIWW | 9436 | 3.975 | 48.82 | 3.975 | 9436 | 3.975 | 3.975 | – | 15.83 | 15.4 | 0,37 | -0,43 | -0.4266 | -0.43 | -0.4266 | -0.4266 | -0.43 | – | 15.4 | -0.43 | beta sheet ([2]; peptides with TEM 2cat 0): 49; Zeta Count Rate ([3]; peptides with TEM 2cat 0): 9436 kcp; Log10 of Rel to EFC (Feb2021) [5, 17]: -0.43
KIKIKIKIWWWW | 12420.6 | 4.094 | 37.79 | 4.094 | 12421 | 4.094 | 4.094 | – | 14.82 | 15.2 | 0,59 | -0,23 | -0.2301 | -0.23 | -0.2301 | -0.2301 | -0.23 | – | 15.2 | – | Zeta Count Rate ([3]; peptides with TEM 2cat 0): 12421 kcp; Log10 of Rel to EFC (Feb2021) [5, 17]: -0.23
KIKIKIQI | 999.1 | 3 | 40.16 | 3 | 999 | 3 | 3 | – | 9.885 | 6.97 | 0,1 | -1,01 | -1.014 | -1.01 | -1.014 | -1.014 | – | – | 6.97 | -1.01 | –
KIKIKIQINMWQ | 1603.1 | 3.205 | 39.61 | 3.205 | 1603 | 3.205 | 3.205 | 13.1 | 13 | 13.1 | 0,79 | -0,1 | -0.1048 | -0.1 | -0.1048 | -0.1048 | -0.1 | 20353.33333 | – | – | –
KIKIQIC | 980.7 | 2.992 | 52.93 | 2.992 | 981 | 2.992 | 2.992 | – | 19.97 | 19.93 | 0,61 | -0,22 | -0.2164 | -0.22 | -0.2164 | -0.2164 | -0.22 | – | 19.93 | -0.22 | FTIR ß-sheet content [2]: 52.93%; Log10 Count Rate ([3]; logarithm of count rate in kcps): 2.992; Zeta Count Rate ([3]; mean of the 3 replicates): 980.7 kcps; Zeta Count Rate ([3]; replicate 1): 1115.50 kcps; Zeta Count Rate ([3]; replicate 2): 1268.60 kcps; Zeta Count Rate ([3]; replicate 3): 557.90 kcps; Infection RLU/s, 1.3 µm abs ([5]; peptide 1.3 µm (so in the source), mean of the 3 replicates): 9447 RLU/s
